According to patent US11701355B2, “Levosimendan for treating pulmonary hypertension with heart failure with preserved ejection fraction (PH-HFpEF)” (Tenax Therapeutics, Inc., priority 2019, dated 2023):
“Also recorded” adds a separate entry of the source.

What was measured:
[1] = parent drug, intravenous infusion; cited from earlier work
PH-HFpEF patients = experiment: HELP Study double-blind phase: weekly 24-hour infusions for 5 weeks vs placebo, assessment at Week 6; type: in vivo, human; settings: for mean pulmonary arterial pressure (mPAP) / right atrial pressure (RAP) / six-minute walk test distance: Week 6, compared with placebo; for pulmonary capillary wedge pressure (PCWP): baseline vs Week 6, compared with placebo
Protocol: Study drug is administered via i.v. infusion over 24 hours weekly through Week 5 via a PICC line. Infusions (Week 2-5) are done in the subject's home by a study nurse. Patients return to the study site for a visit between the Week 3 and Week 4 infusions for assessment of subject safety/response and need for dose adjustment. Each subject is to return on Week 6 for assessment of efficacy and safety on study drug. A right heart catheter will be inserted to obtain hemodynamic measurements at rest and exercise at baseline, the following day after the lead-in 24-hour infusion, and during Week 6.
During the Lead-in phase of the study, a sufficient number of subjects are enrolled and receive levosimendan to identify a total of 36 ‘responders.’ The levosimendan ‘responders’ are randomized 1:1, levosimendan or placebo, for the double-blind phase of the study.
During the Double-blind phase, study drug concentrated solution (2.5 mg/mL), levosimendan or placebo, is mixed with diluent and administered via a PICC line as weekly infusions at 0.075 μg/kg/min for 24 hours. Patients undergo a dose escalation at Week 4 and 5 (0.10 μg/kg/min for 24 hours) unless there has been a meaningful change in blood pressure or heart rate. Infusion rates may be reduced to 0.05 μg/kg/min if the higher dose is not well-tolerated at any time during the initial 5 weeks.
Visits at Weeks 2, 3, 4, and 5 are performed within +/−48 hours of the scheduled visit. Visits for Weeks 2-5 are calculated based on the date of the Lead-in infusion. These visits are performed at the subject's home with the aid of the home health care nurse. The home health care nurse remains with the patient for the first 2-3 hours of the infusion to ensure patient safety. The home health care nurse visits the patient again at 24 hours to stop the infusion and assess the patient's status. During this visit, the following procedures are performed: Record any changes in procedures, prescription and non-prescription drugs, vitamins, and dietary or herbal supplements; measure vital signs prior to starting the infusion, after the first 2 hours (+/−30 min), and after 24 hours (+/−30 min); assess adverse events and study drug administration. At Week 5, all patients are given a new cardiac monitoring sensor to wear on their chest to measure cardiac rhythm, as was done during Screening. The patch is applied prior to (<1 hour) the 24-hour infusion, remain monitoring the patient for a minimum of 72 hours and returned to the investigational site at the Week 6 visit.
Visits at Week 6 should be performed 3-6 days following completion of the Week 5 infusion. During this visit, the following procedures are performed: record any changes in procedures, prescription and non-prescription drugs, vitamins, and dietary or herbal supplements; measure vital signs (BP, PR, respiratory rate, temperature); hematology and clinical chemistry blood samples; conduct 12-lead ECG; echocardiogram within +/−72 hours of the Week 6 visit; right heart catheterization at rest and with exercise; QOL assessment; Child-Pugh Class, NYHA Functional Class, assess adverse events, 6 minute walk test; and pharmacokinetic sampling (sample to be taken prior to enrollment in Open-Label phase.
The 6-minute walk test (6MWT) is performed at approximately the same time of day at each study visit after the Baseline Visit and ideally, one of the first assessments to be performed. The ECHO and subject questionnaire are performed after the 6MWT has been completed. The 6MWT is performed using the methods described in the American Thoracic Society (ATS) Statement: Guidelines for the Six-Minute Walk Test. The test is performed at approximately the same time of day when assessed and by the same evaluator whenever possible.

HFrEF patients = settings: compared with placebo; cited from earlier work
[2] = chronic (weekly for 5 weeks) administration, week 6
[3] = weekly 24-hour infusions, listed as Levosimendan
[4] = weekly 24-hour infusions, compared with placebo

SMILES: C[C@@H]1CC(=O)NN=C1c1ccc(NN=C(C#N)C#N)cc1 [levosimendan, Levosimendan]
- half-life [1]: approximately 1 hour
- Cardiac Index (CI) (PH-HFpEF patients; [2]): unchanged at week 6
- pulmonary vascular resistance (PVR) (PH-HFpEF patients; [2]): unchanged at week 6
- pulmonary vascular resistance (PVR) (PH-HFpEF patients; chronic (weekly for 5 weeks) administration, week 6, listed as Levosimendan): did not decrease
- safety and tolerability (PH-HFpEF patients; weekly 24-hour dosing): safe and well tolerated
- mean pulmonary arterial pressure (mPAP) (PH-HFpEF patients; weekly 24-hour infusions): significantly greater reduction; also recorded: decrease
- right atrial pressure (RAP) (PH-HFpEF patients; weekly 24-hour infusions): decrease; also recorded: significantly greater reduction
- six-minute walk test distance (PH-HFpEF patients; weekly 24-hour infusions): significantly increased; also recorded: increase; also recorded: statistically significant improvement
- mean pulmonary arterial pressure (mPAP) (PH-HFpEF patients; [3]): reduces
- right atrial pressure (RAP) (PH-HFpEF patients; [3]): improves
- six-minute walk test distance (PH-HFpEF patients; [3]): improves
- pulmonary capillary wedge pressure (PCWP) (PH-HFpEF patients; weekly 24-hour infusions): significant vs placebo; also recorded: greater decrease
- pulmonary capillary wedge pressure (PCWP) (PH-HFpEF patients; [3]): improves
- cardiac output (PH-HFpEF patients; [4]): significantly greater increase
- proportion of subjects with an improved sense of well-being (PH-HFpEF patients; [4]): significantly higher proportion
- cardiac output, stroke volume, ejection fraction, and heart rate (HFrEF patients): increased
- systolic blood pressure, diastolic blood pressure, pulmonary capillary wedge pressure, right atrial pressure, and peripheral vascular resistance (HFrEF patients): reduced
